Assay results taken from paper PMC3914206.

Legend:
Type in all cases: binding
Parameters in all cases: KINOMEscan: ABL1(F317L)-phosphorylated / KINOMEscan: ABL1(H396P)-nonphosphorylated / KINOMEscan: ABL1(H396P)-phosphorylated / KINOMEscan: ABL1(M351T)-phosphorylated / KINOMEscan: ABL1(T315I)-phosphorylated / KINOMEscan: ABL1-nonphosphorylated / KINOMEscan: ABL1-phosphorylated / KINOMEscan: ACVR2A / KINOMEscan: ACVR2B / KINOMEscan: ADCK3 / KINOMEscan: ADCK4 / KINOMEscan: AKT1 / KINOMEscan: AKT3 / KINOMEscan: ALK / KINOMEscan: ARK5 / KINOMEscan: AURKA / KINOMEscan: AURKC / KINOMEscan: BIKE / KINOMEscan: BMPR1A / KINOMEscan: BMPR1B / KINOMEscan: BMX / KINOMEscan: BRK / KINOMEscan: BRSK1 / KINOMEscan: BRSK2 / KINOMEscan: CAMK1 / KINOMEscan: CAMK1D / KINOMEscan: CAMK1G / KINOMEscan: CAMK2A / KINOMEscan: CAMK2B / KINOMEscan: AAK1 / KINOMEscan: CAMK2D / KINOMEscan: CAMK2G / KINOMEscan: ABL1(F317I)-nonphosphorylated / KINOMEscan: ABL1(F317I)-phosphorylated / KINOMEscan: ABL1(F317L)-nonphosphorylated: unit: % Ctrl
panel of 442 kinases [1] = target: T1, panel of 442 kinases (Homo sapiens, UniProt P53671); conditions: Compound Concentration 10 µM
T1 construct: purchased KINOMEscan
T1 sequence (P53671 whole entry): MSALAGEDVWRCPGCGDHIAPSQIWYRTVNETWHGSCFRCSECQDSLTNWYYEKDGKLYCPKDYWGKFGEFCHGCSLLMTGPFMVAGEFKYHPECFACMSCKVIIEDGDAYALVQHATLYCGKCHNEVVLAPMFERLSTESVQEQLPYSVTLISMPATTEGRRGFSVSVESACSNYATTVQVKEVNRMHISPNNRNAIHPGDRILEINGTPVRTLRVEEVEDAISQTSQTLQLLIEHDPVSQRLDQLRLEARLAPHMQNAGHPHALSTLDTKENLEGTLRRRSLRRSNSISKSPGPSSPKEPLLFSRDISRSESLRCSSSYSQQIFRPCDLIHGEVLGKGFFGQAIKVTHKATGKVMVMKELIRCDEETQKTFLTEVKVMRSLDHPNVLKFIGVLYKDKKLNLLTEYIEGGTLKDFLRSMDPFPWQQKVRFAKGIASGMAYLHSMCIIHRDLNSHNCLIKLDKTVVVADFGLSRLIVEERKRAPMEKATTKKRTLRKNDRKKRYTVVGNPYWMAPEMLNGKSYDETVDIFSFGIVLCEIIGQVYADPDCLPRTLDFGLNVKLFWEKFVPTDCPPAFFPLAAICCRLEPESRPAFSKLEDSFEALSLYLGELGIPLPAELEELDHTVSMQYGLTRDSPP
Source text: (§1) We assessed the selectivity of members of this scaffold using the KINOMEscan methodology across a near comprehensive panel of 442 kinases [[18,27]].

panel of 442 kinases [2] = target: T2, panel of 442 kinases (Homo sapiens, UniProt P29597); conditions: compound concentration 10 µM; for % Ctrl, TYK2(JH1domain-catalytic): kinase TYK2(JH1domain-catalytic); for % Ctrl, TYK2(JH2domain-pseudokinase): kinase TYK2(JH2domain-pseudokinase)
T2 construct: purchased KINOMEscan
T2 sequence (P29597 whole entry): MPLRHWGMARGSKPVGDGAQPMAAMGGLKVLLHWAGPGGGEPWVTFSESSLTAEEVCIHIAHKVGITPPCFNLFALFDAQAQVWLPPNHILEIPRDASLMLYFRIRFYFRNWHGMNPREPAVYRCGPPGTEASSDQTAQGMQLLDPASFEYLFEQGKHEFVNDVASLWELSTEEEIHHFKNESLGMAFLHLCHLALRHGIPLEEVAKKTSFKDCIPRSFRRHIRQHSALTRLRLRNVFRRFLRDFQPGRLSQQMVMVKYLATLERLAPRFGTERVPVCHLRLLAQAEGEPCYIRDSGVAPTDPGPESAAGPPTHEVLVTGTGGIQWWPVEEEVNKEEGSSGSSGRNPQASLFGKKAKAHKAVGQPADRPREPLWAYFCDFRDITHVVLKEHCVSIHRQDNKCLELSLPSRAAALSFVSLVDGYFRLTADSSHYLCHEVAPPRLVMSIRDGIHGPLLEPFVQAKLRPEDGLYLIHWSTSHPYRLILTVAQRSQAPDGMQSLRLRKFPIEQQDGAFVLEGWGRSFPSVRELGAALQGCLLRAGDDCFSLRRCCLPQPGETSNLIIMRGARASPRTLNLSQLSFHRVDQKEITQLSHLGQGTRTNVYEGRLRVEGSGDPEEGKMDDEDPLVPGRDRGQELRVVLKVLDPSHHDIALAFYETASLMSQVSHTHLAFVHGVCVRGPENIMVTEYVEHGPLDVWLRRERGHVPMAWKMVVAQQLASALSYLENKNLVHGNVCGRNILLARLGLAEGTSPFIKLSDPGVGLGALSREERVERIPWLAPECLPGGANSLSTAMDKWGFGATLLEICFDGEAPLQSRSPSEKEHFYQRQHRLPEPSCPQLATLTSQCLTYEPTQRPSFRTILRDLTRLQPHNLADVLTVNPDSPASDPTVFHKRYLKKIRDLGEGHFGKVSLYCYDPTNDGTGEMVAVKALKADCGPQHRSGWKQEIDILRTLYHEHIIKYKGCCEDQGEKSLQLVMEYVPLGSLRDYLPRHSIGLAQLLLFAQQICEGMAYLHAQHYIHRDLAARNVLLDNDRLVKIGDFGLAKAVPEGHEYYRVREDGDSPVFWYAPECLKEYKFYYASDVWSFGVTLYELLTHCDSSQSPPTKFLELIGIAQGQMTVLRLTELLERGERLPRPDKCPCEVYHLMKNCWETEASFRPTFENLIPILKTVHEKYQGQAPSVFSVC
Source text: as §1

panel of 442 kinases [3] = target: T3, panel of 442 kinases (Homo sapiens, UniProt Q13233); conditions: Compound Concentration 10 µM
T3 construct: purchased KINOMEscan
T3 sequence (Q13233 whole entry): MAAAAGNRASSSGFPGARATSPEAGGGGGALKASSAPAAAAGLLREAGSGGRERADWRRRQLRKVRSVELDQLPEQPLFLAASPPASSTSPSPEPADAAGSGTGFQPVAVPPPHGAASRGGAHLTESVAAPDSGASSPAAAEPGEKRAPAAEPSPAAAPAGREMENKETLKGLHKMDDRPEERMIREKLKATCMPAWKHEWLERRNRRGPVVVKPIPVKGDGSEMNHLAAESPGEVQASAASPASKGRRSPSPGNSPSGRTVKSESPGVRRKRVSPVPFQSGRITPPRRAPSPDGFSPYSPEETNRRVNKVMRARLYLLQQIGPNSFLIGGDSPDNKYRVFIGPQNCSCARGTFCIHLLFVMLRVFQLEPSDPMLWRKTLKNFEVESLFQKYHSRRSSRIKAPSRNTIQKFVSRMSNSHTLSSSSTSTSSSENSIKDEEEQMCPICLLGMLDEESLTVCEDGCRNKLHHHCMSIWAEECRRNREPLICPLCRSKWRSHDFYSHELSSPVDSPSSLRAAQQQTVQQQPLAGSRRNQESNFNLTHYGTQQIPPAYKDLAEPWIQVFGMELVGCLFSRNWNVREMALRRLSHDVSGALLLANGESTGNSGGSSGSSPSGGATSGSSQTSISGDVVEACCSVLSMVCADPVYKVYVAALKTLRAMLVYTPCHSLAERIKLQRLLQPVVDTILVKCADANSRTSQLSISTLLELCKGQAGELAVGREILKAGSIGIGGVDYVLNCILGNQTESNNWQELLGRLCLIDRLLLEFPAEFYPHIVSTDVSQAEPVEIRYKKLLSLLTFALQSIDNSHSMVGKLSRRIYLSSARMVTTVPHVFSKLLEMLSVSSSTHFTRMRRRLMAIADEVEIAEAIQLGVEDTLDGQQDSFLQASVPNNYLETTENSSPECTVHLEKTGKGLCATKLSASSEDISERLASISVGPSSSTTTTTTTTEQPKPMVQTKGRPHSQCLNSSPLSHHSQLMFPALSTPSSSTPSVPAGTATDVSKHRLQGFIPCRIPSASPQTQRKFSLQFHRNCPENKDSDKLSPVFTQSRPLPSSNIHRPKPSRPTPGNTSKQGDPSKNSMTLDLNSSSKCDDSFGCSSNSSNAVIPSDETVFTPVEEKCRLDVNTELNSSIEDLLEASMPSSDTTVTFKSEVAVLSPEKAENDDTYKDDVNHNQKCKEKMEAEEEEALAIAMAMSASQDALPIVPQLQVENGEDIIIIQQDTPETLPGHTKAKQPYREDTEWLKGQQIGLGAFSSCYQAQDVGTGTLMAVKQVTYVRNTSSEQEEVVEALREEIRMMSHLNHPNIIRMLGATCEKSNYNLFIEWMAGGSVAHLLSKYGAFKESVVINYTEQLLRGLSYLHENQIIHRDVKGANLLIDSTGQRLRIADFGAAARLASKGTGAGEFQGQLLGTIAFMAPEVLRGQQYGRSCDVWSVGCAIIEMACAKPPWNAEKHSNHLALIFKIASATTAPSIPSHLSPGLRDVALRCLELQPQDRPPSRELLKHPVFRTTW
Source text: as §1

panel of 442 kinases [4] = target: T4, panel of 442 kinases (Homo sapiens, UniProt P00519, T315I); conditions: Compound Concentration 10 µM
T4 construct: purchased KINOMEscan
Source text: as §1

Row | Structure (SMILES) | KINOMEscan: LIMK2 (panel of 442 kinases [1]) | % Ctrl, TYK2(JH1domain-catalytic) (panel of 442 kinases [2]) [% Ctrl] | % Ctrl, TYK2(JH2domain-pseudokinase) (panel of 442 kinases [2]) [% Ctrl] | KINOMEscan: MAP3K1 (panel of 442 kinases [3]) | KINOMEscan: ABL1(T315I)-nonphosphorylated (panel of 442 kinases [4]) | KINOMEscan: ABL1(T315I)-phosphorylated (panel of 442 kinases [4])
1 | COc1cc(C(=O)N2CCC(N3CCN(C)CC3)CC2)ccc1Nc1ncc2c(n1)N(C)c1ccccc1C(=O)N2C [15 (LRRK2-IN-1)] | 100 | 52 | 100 | 95 | 100 | 58
2 | CCOc1cc(C(=O)N2CCC(N3CCN(C)CC3)CC2)ccc1Nc1ncc2c(n1)N(C1CCCC1)c1ccccc1C(=O)N2C [Compound 26] | 100 | 81 | 100 | 93 | 95 | 92
3 | COc1cc(C(=O)N2CCC(N3CCN(C)CC3)CC2)ccc1Nc1ncc2c(n1)N1CCc3cccc(c31)C(=O)N2C [Compound 24] | – | – | – | – | – | 100
4 | COc1cc(C(=O)N2CCC(N3CCN(C)CC3)CC2)ccc1Nc1ncc2c(n1)N(C1CCCC1)c1ccccc1C(=O)N2C [Compound 25, 11-cyclopentyl-2-((2-methoxy-4-(4-(4-methylpiperazin-1-yl)piperidine-1-carbonyl)phenyl)amino)-5-methyl-5H-benzo[e]pyrimido[5,4-b][1,4]diazepin-6(11H)-one] | 100 | 100 | 100 | 100 | 100 | 100
